From patent publication US10508102B2, “Inhibitors of cellular necrosis and related methods” (President and Fellows of Harvard College, priority 2014, dated 2019)
Read-outs that look alike come from different tables or passages of the source.

Assays:
[1] = system: human FADD-deficient Jurkat T cells; assay: Cellular necrosis inhibition, FADD-deficient Jurkat T cells challenged with TNF-alpha (CellTiter-Glo viability); settings: 30 hours, ATP-based cell viability
Description: FADD−/− Jurkat cells (Juo P, et al. Cell Growth Differ. 1999, 10(12):797-804) were seeded at the density of 5*10^5 cells/mL into 96 well white plates (Costar) at 100 μL/well. […] Cells were treated in duplicate with various concentrations of test compounds in the presence or absence of 10 ng/ml human TNF-alpha. (Cell Sciences).
After 30 hours, viability of the cells was determined using luminescent ATP-based cell viability assay (CellTiter-Glo, Promega). Percentage of protection by the compound was calculated as a ratio of the cps (counts per second) value in the well treated with the test compound and TNF-alpha. to the cps value in the well treated with the compound alone. Assays were repeated twice, and the average EC50 value over both assays was calculated.
Exemplary compounds of structure (II) were screened for anti-necrotic activity according to the general procedures of Example 7.

[2] = biological target: GST-human RIP1 kinase domain (amino acids 1-327) (Homo sapiens (Human), UniProt Q13546); assay: RIP1 kinase ADP-Glo assay
Description: RIP1 kinase assays were performed using ADP-Glo assay (Promega) according to manufacturer's protocol. […] Reactions were performed for 4 hr at room temperature and stopped by incubation with ADP-Glo reagent for 40 min at room temperature. Luminescent signal was developed by incubation with Kinase Detection reagent for 30 min at room temperature. Signal was determined using Victor3V platereader (Perkin Elmer). Non-linear regression to calculate EC50 values was performed using GraphPad Prism software package.

[3] = 10 ng/ml human TNF-alpha, read-out: EC50 (nM) TNFα
[4] = 10 ng/ml human TNF-alpha plus Smac mimetic (10 nM SM-164), read-out: EC50 (nM) TNFα + Smac

Sequence of GST-human RIP1 kinase domain (amino acids 1-327) (Q13546 1-327): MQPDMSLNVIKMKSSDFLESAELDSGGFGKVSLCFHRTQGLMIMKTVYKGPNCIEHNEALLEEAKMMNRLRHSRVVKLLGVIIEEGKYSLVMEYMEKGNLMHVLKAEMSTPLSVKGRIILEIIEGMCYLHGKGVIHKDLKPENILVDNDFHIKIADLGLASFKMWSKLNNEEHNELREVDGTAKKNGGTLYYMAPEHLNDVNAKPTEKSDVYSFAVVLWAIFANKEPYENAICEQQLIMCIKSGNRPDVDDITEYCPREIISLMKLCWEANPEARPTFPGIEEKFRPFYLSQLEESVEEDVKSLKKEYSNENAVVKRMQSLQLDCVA

CN1C(=O)N[C@H](Cc2c[nH]c3c(Cl)c(Cl)ccc23)C1=O [B, reference compound]
EC50 [1, 3]: > 100000 nM

CN1C(=O)N[C@H](Cc2c[nH]c3c(Cl)c(F)ccc23)C1=O [Compound (Ia), (R)-5-((7-chloro-6-fluoro-1H-indol-3-yl)methyl)-3-methylimidazolidine-2,4-dione]
EC50 [1, 4]: 86.6 nM | EC50 [2]: 93.7 nM

CN1C(=O)N[C@H](Cc2c[nH]c3c(Cl)cccc23)C1=O [Compound A, reference compound]
EC50 [1, 4]: 324 nM | EC50 [1, 3]: 90.5 nM

O=C1NC(Cc2c[nH]c3ccccc23)C(=O)N1Cc1ccc(Cl)cc1 (centres unmarked) [Compound C1, reference compound]
EC50 [1, 3]: 343 nM

CN1C(=O)N[C@H](Cc2c[nH]c3c(Cl)ccc(F)c23)C1=O [Compound E, reference compound]
EC50 [1, 4]: 8330 nM | EC50 [1, 3]: 2330 nM

CN1C(=O)N[C@H](Cc2c[nH]c3c(Cl)cc(F)cc23)C1=O [Compound F, reference compound]
EC50 [1, 4]: > 100000 nM | EC50 [1, 3]: 10500 nM

O=C1NC(Cc2c[nH]c3c(Cl)cccc23)C(=O)N1Cc1ccccc1F (centres unmarked) [II-1, 5-((7-chloro-1H-indol-3-yl)methyl)-3-(2-fluorobenzyl)imidazolidine-2,4-dione]
EC50 [1, 4]: 11000 nM | EC50 [1, 3]: 159 nM

O=C1NC(Cc2c[nH]c3c(Cl)cccc23)C(=O)N1Cc1cccc(F)c1 (centres unmarked) [II-2, 5-((7-chloro-1H-indol-3-yl)methyl)-3-(3-fluorobenzyl)imidazolidine-2,4-dione]
EC50 [1, 4]: 895 nM | EC50 [1, 3]: 41 nM | EC50 [2]: < 100 nM

O=C1NC(Cc2c[nH]c3c(Cl)cccc23)C(=O)N1Cc1ccc(F)c(F)c1 (centres unmarked) [II-3, 5-((7-chloro-1H-indol-3-yl)methyl)-3-(3,4-difluorobenzyl)imidazolidine-2,4-dione]
EC50 [1, 4]: 426 nM | EC50 [1, 3]: 89 nM | EC50 [2]: < 100 nM

O=C1NC(Cc2c[nH]c3c(Cl)cccc23)C(=O)N1Cc1ccc(F)cc1 (centres unmarked) [II-4, 5-((7-chloro-1H-indol-3-yl)methyl)-3-(4-fluorobenzyl)imidazolidine-2,4-dione]
EC50 [1, 4]: 867 nM | EC50 [1, 3]: 220 nM

O=C1NC(Cc2c[nH]c3c(Cl)c(F)ccc23)C(=O)N1Cc1ccccc1F (centres unmarked) [II-5, 5-((7-chloro-6-fluoro-1H-indol-3-yl)methyl)-3-(2-fluorobenzyl)imidazolidine-2,4-dione]
EC50 [1, 4]: 892 nM | EC50 [1, 3]: 235 nM

O=C1NC(Cc2c[nH]c3c(Cl)c(F)ccc23)C(=O)N1Cc1cccc(F)c1F (centres unmarked) [II-6, 5-((7-chloro-6-fluoro-1H-indol-3-yl)methyl)-3-(2,3-difluorobenzyl)imidazolidine-2,4-dione]
EC50 [1, 4]: 822 nM | EC50 [1, 3]: 50 nM

O=C1NC(Cc2c[nH]c3c(Cl)c(F)ccc23)C(=O)N1Cc1ccc(F)c(F)c1 (centres unmarked) [II-7, 5-((7-chloro-6-fluoro-1H-indol-3-yl)methyl)-3-(3,4-difluorobenzyl)imidazolidine-2,4-dione]
EC50 [1, 4]: 722 nM | EC50 [1, 3]: 121 nM
